The values below come from patent US11007524B2, “Automatic microfluidic system for rapid personalized drug screening and testing method for personalized antibiotic susceptibility” (National Tsing Hua University, priority 2019, dated 2021).

In brackets after ≈: the same amount, converted by molar mass.

The test system of assay [1] is vancomycin-intermediate Staphylococcus aureus (VISA). Nature of the assay: Minimum inhibitory concentration by automatic microfluidic system (Example 9), resazurin colour change. The format is cell-based. As to the method: A determination of minimum inhibitory concentration is performed by using the microfluidic chip 100 of FIG. 1 in cooperated with the testing method 200 for personalized antibiotic susceptibility of FIG. 5. The details of the testing method 200 has been described as mentioned above so that the same process will not be further illustrated herein.
In experimental, the microfluidic chip 100 is divided into a reaction zone 1001 and a reaction zone 1002 along line 10-10 by using the fluid storage chamber 111a and the fluid storage chamber 111b as a center. The reaction zone 1001 is utilized for determining the minimum inhibitory concentration of vancomycin for the vancomycin-intermediate Staphylococcus aureus, and the reaction zone 1002 is utilized for determining the minimum inhibitory concentration of gentamicin for the vancomycin-intermediate Staphylococcus aureus. After 4 hours of incubation of the reaction solutions including the resazurin, with different concentrations, the color of the reaction solution will be gradually changed to red when the vancomycin-intermediate Staphylococcus aureus grows and can be observed directly through the microfluidic chip 100.
In such the example, the reference numerals of the reaction chambers 131 of the microfluidic chip 100 are reassigned to the reaction chambers 131a to 131l. […]
For orientation: Resazurin is reduced to fluorescent resorufin, in cell work by metabolically active cells.

For assay [2] the test system is unchanged. Nature of the assay: Minimum inhibitory concentration by broth microdilution (Comparative Example 1). Particulars: same conditions. The assay is classed as cell-based. The text has this:
Furthermore, the present testing further includes Comparative Example 1.
For orientation: Broth dilution looks for growth in wells or tubes with falling amounts of substance.

Turning to `CN[C@H](CC(C)C)C(=O)N[C@H]1C(=O)N[C@@H](CC(N)=O)C(=O)N[C@H]2C(=O)N[C@H]3C(=O)N[C@H](C(=O)N[C@H](C(=O)O)c4cc(O)cc(O)c4-c4cc3ccc4O)[C@H](O)c3ccc(c(Cl)c3)Oc3cc2cc(c3O[C@@H]2O[C@H](CO)[C@@H](O)[C@H](O)[C@H]2O[C@H]2C[C@](C)(N)[C@H](O)[C@H](C)O2)Oc2ccc(cc2Cl)[C@H]1O` [Vancomycin, vancomycin], the MIC in assay [1] (Staphylococcus aureus, VISA, 4 h, read-out: minimum inhibitory concentration, Example 9) came out at 2.16 µg/mL (≈ 1.49 µM); in assay [2] (Staphylococcus aureus) it was 2 µg/mL (≈ 1.38 µM).
On to gentamicin, for which the “minimum inhibitory concentration, Example 9” value in assay [1] (microfluidic chip, VISA 1500 CFU, 3 μL reaction solution, 4 hours of incubation, resazurin) was >7.52 µg/mL. The “minimum inhibitory concentration, Comparative Example 1” value in assay [2] was >8 µg/mL.
